Consider 32 compounds from US10730866B2, “Indole derivatives and use thereof” (Purdue Pharma L.P., priority 2014, dated 2020).

In this assay the target is human Nav1.7 (Homo sapiens (Human), UniProt Q15858). As to the kind of experiment: FLIPR or FLIPR TETRA sodium dye assay for sodium channel blocking activity. The settings on record: recombinant HEK293 cells expressing human Nav1.7. Format: cell-based. How it is done: In vitro assays were performed in a recombinant cell line expressing cDNA encoding the alpha subunit (Nav1.7, SCN9a, PN1, NE) of human Nav1.7 (Accession No. NM_002977). The cell line was provided by investigators at Yale University (Cummins et al, J. Neurosci. 18(23): 9607-9619 (1998)). For dominant selection of the Nav1.7-expressing clones, the expression plasmid co-expressed the neomycin resistance gene. The cell line was constructed in the human embryonic kidney cell line, HEK293, under the influence of the CMV […] promoter, and stable clones were selected using limiting dilution cloning and antibiotic selection using the neomycin analogue, G418. Recombinant beta and gamma subunits were not introduced into this cell line. Additional cell lines expressing recombinant Nav1.7 cloned from other species can also be used, alone or in combination with various beta subunits, gamma subunits or chaperones.
Chain of human Nav1.7 (Q15858 other isoform, or with tags, fused parts or gaps): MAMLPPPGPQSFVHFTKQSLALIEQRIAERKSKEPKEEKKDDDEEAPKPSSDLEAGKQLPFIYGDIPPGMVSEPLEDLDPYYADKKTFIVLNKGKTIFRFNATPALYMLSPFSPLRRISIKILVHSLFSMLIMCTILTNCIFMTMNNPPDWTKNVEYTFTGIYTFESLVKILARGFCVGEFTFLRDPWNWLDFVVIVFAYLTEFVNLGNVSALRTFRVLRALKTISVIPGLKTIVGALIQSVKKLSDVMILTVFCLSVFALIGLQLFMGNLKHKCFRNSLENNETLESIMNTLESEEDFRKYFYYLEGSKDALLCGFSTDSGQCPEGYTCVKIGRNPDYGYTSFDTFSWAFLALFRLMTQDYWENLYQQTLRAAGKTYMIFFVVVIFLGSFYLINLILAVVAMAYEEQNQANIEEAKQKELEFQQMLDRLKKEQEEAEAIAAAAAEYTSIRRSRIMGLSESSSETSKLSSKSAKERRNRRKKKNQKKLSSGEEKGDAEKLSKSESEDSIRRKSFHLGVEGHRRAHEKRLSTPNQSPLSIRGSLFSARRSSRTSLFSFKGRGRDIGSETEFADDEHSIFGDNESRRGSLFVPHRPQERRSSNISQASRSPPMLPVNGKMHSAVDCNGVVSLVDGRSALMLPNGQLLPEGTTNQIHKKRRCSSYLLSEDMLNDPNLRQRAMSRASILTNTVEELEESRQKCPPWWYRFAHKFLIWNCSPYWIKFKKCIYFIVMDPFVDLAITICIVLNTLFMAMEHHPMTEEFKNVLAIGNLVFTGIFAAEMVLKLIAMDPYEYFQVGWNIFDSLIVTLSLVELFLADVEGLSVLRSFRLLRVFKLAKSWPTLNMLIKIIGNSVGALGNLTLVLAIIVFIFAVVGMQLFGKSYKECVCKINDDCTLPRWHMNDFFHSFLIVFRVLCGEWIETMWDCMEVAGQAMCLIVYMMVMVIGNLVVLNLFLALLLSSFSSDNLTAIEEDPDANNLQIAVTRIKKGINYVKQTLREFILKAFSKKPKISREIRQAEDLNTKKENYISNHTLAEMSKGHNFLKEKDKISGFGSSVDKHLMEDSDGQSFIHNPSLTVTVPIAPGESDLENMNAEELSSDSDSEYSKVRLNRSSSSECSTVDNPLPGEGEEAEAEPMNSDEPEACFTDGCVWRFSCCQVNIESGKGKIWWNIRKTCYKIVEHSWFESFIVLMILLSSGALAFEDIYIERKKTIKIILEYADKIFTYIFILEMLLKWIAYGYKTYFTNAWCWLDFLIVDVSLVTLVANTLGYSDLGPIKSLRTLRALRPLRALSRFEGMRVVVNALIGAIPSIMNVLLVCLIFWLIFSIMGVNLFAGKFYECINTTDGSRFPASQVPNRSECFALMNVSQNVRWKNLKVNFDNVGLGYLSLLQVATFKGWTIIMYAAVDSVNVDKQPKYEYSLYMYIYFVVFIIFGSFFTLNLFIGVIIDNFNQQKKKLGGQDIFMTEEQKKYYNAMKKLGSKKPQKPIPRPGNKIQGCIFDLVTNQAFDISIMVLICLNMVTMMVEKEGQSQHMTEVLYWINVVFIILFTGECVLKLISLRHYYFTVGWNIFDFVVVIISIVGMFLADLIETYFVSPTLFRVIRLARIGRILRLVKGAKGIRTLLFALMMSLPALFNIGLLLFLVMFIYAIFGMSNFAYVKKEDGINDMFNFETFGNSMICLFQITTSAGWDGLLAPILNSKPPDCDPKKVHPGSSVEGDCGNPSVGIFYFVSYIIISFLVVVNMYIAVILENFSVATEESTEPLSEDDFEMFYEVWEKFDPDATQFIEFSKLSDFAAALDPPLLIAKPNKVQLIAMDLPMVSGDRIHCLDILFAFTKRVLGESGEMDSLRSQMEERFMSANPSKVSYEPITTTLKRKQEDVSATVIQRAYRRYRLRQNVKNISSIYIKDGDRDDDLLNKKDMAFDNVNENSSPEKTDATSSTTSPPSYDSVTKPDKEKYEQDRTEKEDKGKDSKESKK
Unless otherwise noted, cell culture reagents were purchased from Mediatech of Herndon, Va. The recombinant Nav1.7/HEK293 cells were routinely cultured in growth medium consisting of Dulbecco's […] essential medium containing 10% fetal bovine serum (FBS, Hyclone, Thermo Fisher Scientific, Logan, Utah), 100 U/mL penicillin, 100 μg/mL streptomycin, 2-4 mM L-glutamine, and […] G418. For natural, non-recombinant cell lines, the selective antibiotic was omitted, and additional media formulations can be applied as needed.
The final buffer consisted of 20 mM Hepes, pH 7.3, 1.261 mM CaCl2, 0.493 mM MgCl2, 0.407 mM Mg(SO)4, 5.33 mM KCl, 0.441 mM KH2PO4, 137 mM NaCl, 0.336 mM Na2HPO4 and […] D-glucose (Hanks et al., Proc. Soc. Exp. Biol. Med. 71:196 (1949)), and the simple formulation was typically the basic buffer throughout the assay (i.e., all wash and addition steps).
The fluorescence indicator used in the primary fluorescence assay was the cell permeant version of CoroNa™ Green (Invitrogen, Molecular Probes, Eugene, Oreg.), a dye that emits light in the fluorescence range (Harootunian et al., J. Biol. Chem. 264(32):19458-19467 (1989)). The intensity of this emission, but not the wavelength range, is increased when the dye is exposed to Na^+ ions, which it can bind with partial selectivity. Cells expressing Nav1.7 or other sodium channels were loaded with the CoroNa™ Green dye immediately in advance of the fluorescence assay, and then, after agonist stimulation, the mobilization of Na^+ ions was detected as the Na^+ ions flowed from the extracellular fluid into the cytoplasm through the activated sodium channel pores. The dye was stored in the dark as a lyophilized powder, and then an aliquot was dissolved immediately before the cell loading procedure, according to the instructions of the manufacturer, to a stock concentration of 10 mM in DMSO. It was then diluted in the assay buffer to a 4× concentrated working solution, so that the final concentration of dye in the cell loading buffer was 5 μM.
In the fluorescence assays, two agonists were used in combination, namely 1) veratridine; and 2) the venom from the yellow scorpion, Leiurus quinquestriatus hebraeus. Veratridine is an alkaloid small molecule that facilitates the capture of channel openings by inhibiting inactivation, and the scorpion venom is a natural preparation that includes peptide toxins selective for different subsets of voltage-gated sodium channels. These scorpion toxins inhibit the fast inactivation of their cognate target channels. Stock solutions of the agonists were prepared to 40 mM in DMSO (veratridine) and 1 mg/mL in dH2O (scorpion venom), and then diluted to make a 4× or 2× stock (depending on the particular assay) in assay buffer, the final concentration being 100 μM (veratridine) and 10 μg/mL (scorpion venom). Both of the agonists were purchased from Sigma Aldrich, St. Louis, Mo.
Test compounds were dissolved in DMSO to yield 10 mM stock solutions. […]
Regarding `NC(=O)c1cccc(-c2ccc3[nH]ccc3c2)n1` [Compound 29, 6-(1H-indol-5-yl)picolinamide], the IC50 is greater than 20 µM.
On to `O=C(Nc1ccc(C(F)(F)F)cc1)c1cccc(-c2ccc3[nH]ccc3c2)n1` [Compound 32, 6-(1H-indol-5-yl)-N-(4-(trifluoromethyl)phenyl)picolinamide], for which the IC50 amounted to 0.233 ± 0.035 µM.
In the case of `O=C(c1cccc(-c2ccc3[nH]ccc3c2)n1)N(c1ccc(C(F)(F)F)cc1)c1ccc(C(F)(F)F)cc1` [Compound 33, 6-(1H-indol-5-yl)-N,N-bis(4-(trifluoromethyl)phenyl)picolinamide], the IC50 is greater than 20 µM.
With `C[C@H](Nc1cc(C(N)=O)nc(-c2ccc3[nH]ccc3c2)n1)C(N)=O` [Compound 35, (S)-6-((1-amino-1-oxopropan-2-yl)amino)-2-(1H-indol-5-yl)pyrimidine-4-carboxamide], the IC50 is greater than 20 µM.
For `NC(=O)c1cc(N[C@H]2CCNC2=O)nc(-c2ccc3[nH]ccc3c2)n1` [Compound 36, (S)-2-(1H-indol-5-yl)-6-((2-oxopyrrolidin-3-yl)amino)pyrimidine-4-carboxamide], the 50% inhibitory concentration (IC50) is greater than 20 µM.
As to `NC(=O)c1cc(O[C@H]2CCNC2=O)nc(-c2ccc3[nH]ccc3c2)n1` [Compound 37, (S)-2-(1H-indol-5-yl)-6-((2-oxopyrrolidin-3-yl)oxy)pyrimidine-4-carboxamide], the IC50 was greater than 20 µM.
For the compound `COc1ccc(-c2nc3cc(-c4nc(N[C@H]5CCNC5=O)cc(C(N)=O)n4)ccc3n2-c2ccc(F)cc2)c(OC)c1` [Compound 42, (S)-2-(2-(2,4-dimethoxyphenyl)-1-(4-fluorophenyl)-1H-benzo[d]imidazol-5-yl)-6-((2-oxopyrrolidin-3-yl)amino)pyrimidine-4-carboxamide], the IC50 came out at 2.02 ± 0.146 µM.
For `NC(=O)c1cc(N[C@H]2CCNC2=O)nc(-c2ccc3c(c2)ncn3-c2ccc(C(F)(F)F)cc2)n1` [Compound 45, (S)-6-((2-oxopyrrolidin-3-yl)amino)-2-(1-(4-(trifluoromethyl)phenyl)-1H-benzo[d]imidazol-5-yl)pyrimidine-4-carboxamide], the IC50 was determined as 7.21 ± 0.562 µM.
In the case of `CC(C)Cn1ccc2cc(-c3nc(N[C@@H](C)C(N)=O)cc(C(N)=O)n3)ccc21` [Compound 47, (S)-6-((1-amino-1-oxopropan-2-yl)amino)-2-(1-isobutyl-1H-indol-5-yl)pyrimidine-4-carboxamide], the 50% inhibitory concentration (IC50) came to 4.19 ± 0.862 µM.
On to `OC[C@H](O)c1ccnc(-c2ccc3ncn(-c4ccc(C(F)(F)F)cc4)c3c2)n1` [Compound 50, (R)-1-(2-(1-(4-(trifluoromethyl)phenyl)-1H-benzo[d]imidazol-6-yl)pyrimidin-4-yl)ethane-1,2-diol], for which the 50% inhibitory concentration (IC50) is greater than 20 µM.
With `OC[C@@H](O)c1ccnc(-c2ccc3ncn(-c4ccc(C(F)(F)F)cc4)c3c2)n1` [Compound 51, (S)-1-(2-(1-(4-(trifluoromethyl)phenyl)-1H-benzo[d]imidazol-6-yl)pyrimidin-4-yl)ethane-1,2-diol], the half-inhibitory concentration (IC50) came out at 3.51 ± 0.733 µM.
On to `NC(=O)c1cccc(-c2ccc3c(ccn3Cc3ccc(C(F)(F)F)cc3)c2)n1` [Compound 56, 6-(1-(4-(trifluoromethyl)benzyl)-1H-indol-5-yl)picolinamide], for which the concentration for half-maximal inhibition (IC50) came to 0.23 ± 0.026 µM.
In the case of `NC(=O)c1cccc(-c2ccc3c(ccn3S(=O)(=O)c3ccc(C(F)(F)F)cc3)c2)n1` [Compound 57, 6-(1-((4-(trifluoromethyl)phenyl)sulfonyl)-1H-indol-5-yl)picolinamide], the IC50 is 0.658 ± 0.078 µM.
On to `NC(=O)c1cccc(-c2ccc3c(ccn3CC3CCCCC3)c2)n1` [Compound 58, 6-(1-(cyclohexylmethyl)-1H-indol-5-yl)picolinamide], for which the half-maximal inhibitory concentration (IC50) came to 0.237 ± 0.062 µM.
As for `NC(=O)c1cccc(-c2ccc3c(ccn3S(=O)(=O)C3CCCCC3)c2)n1` [Compound 59, 6-(1-(cyclohexylsulfonyl)-1H-indol-5-yl)picolinamide], the IC50 is 0.927 ± 0.05 µM.
As for `NC(=O)c1cccc(-c2ccc3c(ccn3Cc3ccc(F)cc3)c2)n1` [Compound 61, 6-(1-(4-fluorobenzyl)-1H-indol-5-yl)picolinamide], the half-inhibitory concentration (IC50) was 0.801 ± 0.052 µM.
For `Cc1ccc(Cn2ccc3cc(-c4cccc(C(N)=O)n4)ccc32)cc1` [Compound 62, 6-(1-(4-methylbenzyl)-1H-indol-5-yl)picolinamide], the IC50 is greater than 20 µM.
For the compound `NC(=O)c1cccc(-c2ccc3c(ccn3CCC3CCCCC3)c2)n1` [Compound 63, 6-(1-(2-cyclohexylethyl)-1H-indol-5-yl)picolinamide], the concentration for half-maximal inhibition (IC50) turned out to be 1.12 ± 0.182 µM.
With `NC(=O)c1cccc(-c2ccc3c(ccn3Cc3ccncc3)c2)n1` [Compound 64, 6-(1-(pyridin-4-ylmethyl)-1H-indol-5-yl)picolinamide], the half-maximal inhibitory concentration (IC50) is greater than 20 µM.
With `NC(=O)c1cccc(-c2ccc3c(ccn3CCN3CCOCC3)c2)n1` [Compound 65, 6-(1-(2-morpholinoethyl)-1H-indol-5-yl)picolinamide], the IC50 is greater than 20 µM.
For `Cc1noc(C)c1Cn1ccc2cc(-c3cccc(C(N)=O)n3)ccc21` [Compound 66, 6-(1-((3,5-dimethylisoxazol-4-yl)methyl)-1H-indol-5-yl)picolinamide] the value was 5.55 ± 0.376 µM; for `CC(C)Cn1ccc2cc(-c3cccc(C(N)=O)n3)ccc21` [Compound 67, 6-(1-isobutyl-1H-indol-5-yl)picolinamide], 0.308 ± 0.078 µM.
Consider `Cc1nc(Cn2ccc3cc(-c4cccc(C(N)=O)n4)ccc32)cs1` [Compound 68, 6-(1-((2-methylthiazol-4-yl)methyl)-1H-indol-5-yl)picolinamide], for which the IC50 lay in the range of 10 to 20 µM.
The same measure for `Cn1ccc2cc(-c3cccc(C(=O)Nc4ccc(C(F)(F)F)cc4)n3)ccc21` [Compound 75, 6-(1-methyl-1H-indol-5-yl)-N-(4-(trifluoromethyl)phenyl)picolinamide]: 3.03 ± 0.837 µM; for `O=C(NC1CCCCC1)c1cccc(-c2ccc3[nH]ccc3c2)n1` [Compound 76, N-cyclohexyl-6-(1H-indol-5-yl)picolinamide]: 0.167 ± 0.02 µM; for `O=C(Nc1ccc(C(F)(F)F)cc1)c1cccc(-c2ccc3[nH]ncc3c2)n1` [Compound 77, 6-(1H-indazol-5-yl)-N-(4-(trifluoromethyl)phenyl)picolinamide]: 2.7 ± 0.524 µM.
`C[C@H](Nc1cc(C(=O)Nc2ccc(C(F)(F)F)cc2)nc(-c2ccc3occc3c2)n1)C(N)=O` [Compound 79, (S)-6-((1-amino-1-oxopropan-2-yl)amino)-2-(benzofuran-5-yl)-N-(4-(trifluoromethyl)phenyl)pyrimidine-4-carboxamide]: the IC50 is greater than 20 µM.
In the case of `C[C@H](Nc1cc(C(=O)Nc2ccc(C(F)(F)F)cc2)nc(-c2ccc3[nH]ccc3c2)n1)C(N)=O` [Compound 80, (S)-6-((1-amino-1-oxopropan-2-yl)amino)-2-(1H-indol-5-yl)-N-(4-(trifluoromethyl)phenyl)pyrimidine-4-carboxamide], the half-inhibitory concentration (IC50) is greater than 20 µM.
Regarding `O=C(Nc1ccc(C(F)(F)F)cc1)c1cccc(-c2ccc3occc3c2)n1` [Compound 81, 6-(benzofuran-5-yl)-N-(4-(trifluoromethyl)phenyl)picolinamide], the IC50 was 0.782 ± 0.044 µM.
With `O=C(NCC1CCCCC1)c1cccc(-c2ccc3[nH]ccc3c2)n1` [Compound 83, N-(cyclohexylmethyl)-6-(1H-indol-5-yl)picolinamide], the concentration for half-maximal inhibition (IC50) stood at 0.18 ± 0.031 µM.
On to `O=C(c1cccc(-c2ccc3[nH]ccc3c2)n1)N1CCCC1` [Compound 84, (6-(1H-indol-5-yl)pyridin-2-yl)(pyrrolidin-1-yl)methanone], for which the IC50 is greater than 20 µM.
As for `O=C(NC1CCCC1)c1cccc(-c2ccc3[nH]ccc3c2)n1` [Compound 85, N-cyclopentyl-6-(1H-indol-5-yl)picolinamide], the IC50 was determined as 1.21 ± 0.242 µM.
